For this test, the target named is WD repeat-containing protein 5 (Homo sapiens, UniProt P61964). Put plainly: Binding affinity to his sumo tagged N-terminal WDR5 (23 to […] residues) (unknown origin) incubated for 3 hrs by HTRF binding assay.

pIC50: −log10 of the molar value.

The compound `CC(C)C[C@H](NC(=O)[C@H](Cc1ccccc1)NC(=O)[C@@H](N)CS)C(=O)N[C@@H](CC(N)=O)C(=O)N[C@H](C(=O)N[C@@H](CO)C(=O)N[C@@H](CC(N)=O)C(=O)N[C@@H](C)C(=O)N[C@@H](CS)C(=O)O)C(C)C` showed a pIC50 below 4.00.
For `NCCCC[C@H](NC(=O)[C@H](Cc1c[nH]c2ccccc12)NC(=O)[C@H](CCC(N)=O)NC(=O)[C@H](CC(N)=O)NC(=O)[C@@H]1CCCN1C(=O)[C@@H](N)CS)C(=O)N[C@@H](CO)C(=O)N[C@@H](Cc1ccc(O)cc1)C(=O)N[C@@H](CS)C(=O)O`, the pIC50 is below 4.00.
Under `CC(C)[C@H](NC(=O)[C@H](CC(=O)O)NC(=O)[C@H](C)NC(=O)[C@H](CCC(=O)O)NC(=O)CNC(=O)[C@H](CCC(=O)O)NC(=O)CNC(=O)[C@@H](N)CS)C(=O)N[C@@H](CS)C(=O)O` stands below 4.00.
